The text below walks through data of publication PMC6862209, “Deep Eutectic Solvents as New Reaction Media to Produce Alkyl-Glycosides Using Alpha-Amylase from Thermotoga maritima” (International Journal of Molecular Sciences, 2019).

The structures appear in SMILES notation.

Assay [1] concerns the target T1, Amy A (α-amylase from Thermotoga maritima) (Thermotoga maritima, UniProt Q9S5Y2).
T1 construct: gene TM_1840; heterologous expression in E. coli
T1 sequence (Q9S5Y2 27-556): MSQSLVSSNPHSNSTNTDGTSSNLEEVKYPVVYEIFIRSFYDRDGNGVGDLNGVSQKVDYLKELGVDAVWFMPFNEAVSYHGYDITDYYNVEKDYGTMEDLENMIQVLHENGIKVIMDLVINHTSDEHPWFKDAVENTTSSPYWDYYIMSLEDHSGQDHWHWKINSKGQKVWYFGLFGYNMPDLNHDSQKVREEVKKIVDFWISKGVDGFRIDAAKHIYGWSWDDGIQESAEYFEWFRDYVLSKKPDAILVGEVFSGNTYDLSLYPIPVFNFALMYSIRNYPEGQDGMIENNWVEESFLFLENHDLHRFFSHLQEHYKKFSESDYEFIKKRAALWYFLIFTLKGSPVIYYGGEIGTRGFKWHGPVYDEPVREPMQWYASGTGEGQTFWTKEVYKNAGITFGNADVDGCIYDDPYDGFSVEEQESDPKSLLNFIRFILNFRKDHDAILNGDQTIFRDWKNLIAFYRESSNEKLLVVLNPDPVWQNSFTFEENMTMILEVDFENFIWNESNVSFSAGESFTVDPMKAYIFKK
As to the kind of experiment: HPLC of remaining maltotriose (partially purified enzyme). It counts as biochemical. The conditions noted are these: 50 mM maltotriose, 75 °C, 4 h; water:DES cosolvent series, hydrolysis to maltose and glucose.

The target in assay [2] is T1, Amy A (α-amylase from Thermotoga maritima). Put plainly: HPLC of methyl glycosides after glucoamylase treatment. It counts as biochemical. To be noted: acceptor in alcoholysis; donor maltotriose 50 mM, 75 °C, choline chloride:urea (1:2):water.

`OC[C@H]1O[C@H](O[C@H]2[C@H](O)[C@@H](O)[C@@H](O[C@H]3[C@H](O)[C@@H](O)C(O)O[C@@H]3CO)O[C@@H]2CO)[C@H](O)[C@@H](O)[C@@H]1O` (some centres unmarked) [maltotriose]: in assay [1], the “HPLC of remaining maltotriose (partially purified enzyme)” value is “Substrate conversion was measured as the amount of maltotriose hydrolyzed to maltose and glucose”.
Turning to `CO` [methanol], in assay [2], the “HPLC of methyl glycosides after glucoamylase treatment” value was “Methyl-glucoside, methyl-maltoside, and interestingly, also methyl-maltotrioside were detected”.
